One may read the GI50 as the concentration giving 50% growth inhibition.

Molecules are shown by their SMILES.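 Cells were grown in 96-well plates and exposed to each compound for 48 hours at five concentrations; endpoints were interpolated linearly between bracketing concentrations, or set to the highest concentration if not reached. At the GI50, growth is halved.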 Activity calls are given as the source filed them. Cut-off read from the data, not from the text of the source: active = GI50 up to about 1.1 µM and inactive = higher. Some results are limits rather than exact numbers.

Results on four compounds are retold here after ChEMBL document CHEMBL1201862, “PubChem BioAssay data set” (2004).

Some test systems named below: A549; ACHN; CCRF-CEM; HCT-15; HL-60; HOP-62; Hs-578T; K562; MDA-MB-231; Malme-3M; NCI-H460; OVCAR-3; OVCAR-5; RXF 393; SF-295; SN12C; SNB-19; SR; UACC-257; UACC-62.
Holding throughout (assay): DTP human tumour cell line panel, 48 h

In the case of `COC(=O)c1sc2c(c1C(=O)OC)/C(=N/C(C)(C)C)S/C2=N\C(C)(C)C`, the GI50 with A549 was 17.4 µM (inactive); in the experiment on ACHN it was 18.7 µM (inactive); in the experiment on CCRF-CEM, 15.6 µM (inactive); with HCT-15, 17.2 µM; with HL-60, 13.6 µM (inactive); in the experiment with HOP-62, 19.6 µM (inactive). Moreover, the GI50 in the experiment with Hs-578T is 25.7 µM (inactive); in the experiment with K562, 18.5 µM (inactive); in the experiment on MDA-MB-231, 19.9 µM (inactive); in the experiment with Malme-3M, 20.7 µM (inactive); with NCI-H460, 18.5 µM (inactive); in the experiment with OVCAR-3, 20.3 µM (inactive). In addition, the GI50 was 20.6 µM (inactive) in the experiment on OVCAR-5; 4.02 µM (inactive) in the experiment on RXF 393; 19.2 µM (inactive) in the experiment with SF-295; 16.6 µM (inactive) in the experiment on SN12C; 17.8 µM (inactive) in the experiment on SNB-19; 13.4 µM (inactive) with SR. Besides, the results for the GI50 in the experiment with UACC-257 and in the experiment on UACC-62 were 17.9 µM (inactive) and 17 µM (inactive), respectively.
As to `COc1cc(/C=C/C(=N\NC(=S)NN)c2sc(NNC(C)=O)nc2C)ccc1O`, the GI50 is > 100 µM (inactive) in the experiment on A549; > 100 µM (inactive) in the experiment with ACHN; > 100 µM (inactive) in the experiment on CCRF-CEM; more than 100 µM with HCT-15; > 100 µM (inactive) in the experiment on HL-60; > 100 µM (inactive) with HOP-62. For the same compound, the GI50 in the experiment with Hs-578T, in the experiment with K562, with MDA-MB-231, in the experiment on Malme-3M, in the experiment with NCI-H460 and in the experiment on OVCAR-3 was > 100 µM (inactive) in each case. The GI50 with OVCAR-5, in the experiment on RXF 393, in the experiment with SF-295, with SN12C, in the experiment with SNB-19 and in the experiment on SR was > 100 µM (inactive) each time. Moreover, the GI50 with UACC-257 and with UACC-62 was > 100 µM (inactive) each time.
As for `Cc1cc(NS(=O)(=O)c2ccc(NC(=O)c3ccc4[nH]c5ccccc5c(=O)c4c3)cc2)no1`, the GI50 with A549 is > 100 µM (inactive); in the experiment with ACHN, > 100 µM (inactive); with CCRF-CEM, 40.9 µM (inactive); with HCT-15, more than 100 µM; with HL-60, > 100 µM (inactive); in the experiment on HOP-62, > 100 µM (inactive). Moreover, the GI50 was 49.9 µM (inactive) in the experiment with Hs-578T; > 100 µM (inactive) in the experiment with K562; > 100 µM (inactive) in the experiment on MDA-MB-231; 56.9 µM (inactive) in the experiment on Malme-3M; > 100 µM (inactive) with NCI-H460; > 100 µM (inactive) in the experiment with OVCAR-3. The GI50 in the experiment with OVCAR-5 is > 100 µM (inactive); in the experiment with RXF 393, 45.4 µM (inactive); in the experiment with SF-295 it was > 100 µM (inactive); in the experiment with SN12C, > 100 µM (inactive); in the experiment on SNB-19, > 100 µM (inactive); with SR it was > 100 µM (inactive). The GI50 in the experiment with UACC-257 and with UACC-62 was > 100 µM (inactive) in each case.
Take `COc1ccc(/C=c2/[nH]c(=O)/c(=C\c3ccc(OCc4ccccc4)cn3)[nH]c2=O)cc1`: the GI50 in the experiment on A549 is 50.2 µM (inactive); with ACHN it was > 100 µM (inactive); with CCRF-CEM, 13.9 µM (inactive); in the experiment with HCT-15, 38.6 µM; in the experiment with HL-60, 6.93 µM (inactive); in the experiment with HOP-62 it was 43 µM (inactive). Besides, the GI50 in the experiment on Hs-578T is 57.5 µM (inactive); in the experiment on K562, 31.1 µM (inactive); in the experiment with MDA-MB-231, > 100 µM (inactive); in the experiment on Malme-3M, > 100 µM (inactive); in the experiment with NCI-H460 it was 63.8 µM (inactive); with OVCAR-3, > 100 µM (inactive). Also, the GI50 was > 100 µM (inactive) in the experiment with OVCAR-5; 23.2 µM (inactive) with RXF 393; 40.6 µM (inactive) in the experiment with SF-295; > 100 µM (inactive) in the experiment on SN12C; 34.4 µM (inactive) with SNB-19; 20.8 µM (inactive) with SR. Moreover, the GI50 with UACC-257 and with UACC-62 was > 100 µM (inactive) each time.
